Test results as given in the NIST ThermoML archive (doi:10.1021/je6005778).
± gives the expanded uncertainty stated by the source.

Settings: Liquid; for speed of sound: Pulse-echo method

CC(O)CCO (stereo unspecified) [1,3-butanediol]
mass density (288.15 K, 101.33 kPa): 1006.75 ± 0.2 kg/m3
speed of sound (292.86 K, 45590 kPa): 1686.5 ± 2.4 m/s
speed of sound (292.86 K, 75990 kPa): 1770.1 ± 2.3 m/s
speed of sound (292.86 K, 91180 kPa): 1808.7 ± 2.3 m/s
speed of sound (292.86 K, 101320 kPa): 1833.6 ± 2.3 m/s
speed of sound (292.87 K, 15200 kPa): 1592.1 ± 2.4 m/s
speed of sound (292.87 K, 30390 kPa): 1641 ± 2.4 m/s
speed of sound (292.87 K, 60790 kPa): 1729.5 ± 2.4 m/s
speed of sound (292.92 K, 101.33 kPa): 1537.7 ± 1.3 m/s
mass density (293.15 K, 101.33 kPa): 1003.52 ± 0.19 kg/m3
mass density (298.15 K, 101.33 kPa): 1000.23 ± 0.19 kg/m3
speed of sound (298.15 K, 15200 kPa): 1578.4 ± 2.4 m/s
speed of sound (298.15 K, 30390 kPa): 1628 ± 2.4 m/s
speed of sound (298.15 K, 45590 kPa): 1673.8 ± 2.4 m/s
speed of sound (298.15 K, 60790 kPa): 1717.4 ± 2.4 m/s
speed of sound (298.15 K, 75990 kPa): 1758.3 ± 2.4 m/s
speed of sound (298.15 K, 91180 kPa): 1797.3 ± 2.3 m/s
speed of sound (298.15 K, 101320 kPa): 1822.1 ± 2.3 m/s
speed of sound (298.2 K, 101.33 kPa): 1523.3 ± 1.3 m/s
speed of sound (303.13 K, 15200 kPa): 1565.3 ± 2.4 m/s
speed of sound (303.13 K, 30390 kPa): 1615.9 ± 2.4 m/s
speed of sound (303.13 K, 45590 kPa): 1662.2 ± 2.4 m/s
speed of sound (303.13 K, 60790 kPa): 1706 ± 2.4 m/s
speed of sound (303.13 K, 75990 kPa): 1747.3 ± 2.4 m/s
speed of sound (303.13 K, 91180 kPa): 1786.7 ± 2.3 m/s
speed of sound (303.13 K, 101320 kPa): 1811.6 ± 2.3 m/s
mass density (303.15 K, 101.33 kPa): 996.895 ± 0.19 kg/m3
speed of sound (303.17 K, 101.33 kPa): 1509.7 ± 1.3 m/s
speed of sound (308.11 K, 101320 kPa): 1801.7 ± 2.3 m/s
speed of sound (308.12 K, 45590 kPa): 1650.6 ± 2.4 m/s
speed of sound (308.12 K, 75990 kPa): 1736.7 ± 2.4 m/s
speed of sound (308.13 K, 15200 kPa): 1552.4 ± 2.4 m/s
speed of sound (308.13 K, 30390 kPa): 1603.5 ± 2.4 m/s
speed of sound (308.13 K, 60790 kPa): 1694.6 ± 2.4 m/s
speed of sound (308.13 K, 91180 kPa): 1776.3 ± 2.3 m/s
mass density (308.15 K, 101.33 kPa): 993.524 ± 0.2 kg/m3
speed of sound (308.16 K, 101.33 kPa): 1496 ± 1.3 m/s
speed of sound (313.11 K, 15200 kPa): 1539.6 ± 2.4 m/s
speed of sound (313.11 K, 30390 kPa): 1591.2 ± 2.4 m/s
speed of sound (313.11 K, 45590 kPa): 1639.1 ± 2.4 m/s
speed of sound (313.11 K, 60790 kPa): 1683.6 ± 2.4 m/s
speed of sound (313.11 K, 75990 kPa): 1725.9 ± 2.4 m/s
speed of sound (313.11 K, 91180 kPa): 1765.9 ± 2.3 m/s
speed of sound (313.11 K, 101320 kPa): 1791.5 ± 2.3 m/s
speed of sound (313.14 K, 101.33 kPa): 1482.3 ± 1.3 m/s
mass density (313.15 K, 101.33 kPa): 990.116 ± 0.2 kg/m3
mass density (318.16 K, 101.33 kPa): 986.665 ± 0.2 kg/m3
speed of sound (318.29 K, 15200 kPa): 1526.2 ± 2.4 m/s
speed of sound (318.29 K, 30390 kPa): 1578.4 ± 2.4 m/s
speed of sound (318.29 K, 45590 kPa): 1627 ± 2.4 m/s
speed of sound (318.29 K, 60790 kPa): 1672 ± 2.4 m/s
speed of sound (318.29 K, 75990 kPa): 1714.8 ± 2.4 m/s
speed of sound (318.29 K, 91180 kPa): 1755.2 ± 2.3 m/s
speed of sound (318.29 K, 101320 kPa): 1781.1 ± 2.3 m/s
speed of sound (318.32 K, 101.33 kPa): 1467.9 ± 1.3 m/s
mass density (323.15 K, 101.33 kPa): 983.181 ± 0.21 kg/m3
mass density (328.16 K, 101.33 kPa): 979.654 ± 0.21 kg/m3
mass density (333.16 K, 101.33 kPa): 976.087 ± 0.22 kg/m3
mass density (338.15 K, 101.33 kPa): 972.476 ± 0.22 kg/m3
mass density (343.15 K, 101.33 kPa): 968.825 ± 0.23 kg/m3
mass density (348.16 K, 101.33 kPa): 965.14 ± 0.23 kg/m3
mass density (353.15 K, 101.33 kPa): 961.411 ± 0.24 kg/m3
mass density (358.15 K, 101.33 kPa): 957.637 ± 0.24 kg/m3
mass density (363.15 K, 101.33 kPa): 953.825 ± 0.25 kg/m3

CCC(O)CO (stereo unspecified) [1,2-butanediol]
mass density (288.15 K, 101.33 kPa): 1005.78 ± 0.34 kg/m3
speed of sound (292.87 K, 45600 kPa): 1634.3 ± 2.5 m/s
speed of sound (292.87 K, 60790 kPa): 1681.5 ± 2.5 m/s
speed of sound (292.87 K, 75990 kPa): 1726 ± 2.5 m/s
speed of sound (292.87 K, 91190 kPa): 1768 ± 2.5 m/s
speed of sound (292.87 K, 101320 kPa): 1794.7 ± 2.5 m/s
speed of sound (292.88 K, 15200 kPa): 1528.2 ± 2.6 m/s
speed of sound (292.88 K, 30400 kPa): 1583.2 ± 2.6 m/s
speed of sound (292.93 K, 101.33 kPa): 1466.5 ± 1.6 m/s
mass density (293.15 K, 101.33 kPa): 1002.12 ± 0.33 kg/m3
speed of sound (298.1 K, 101.33 kPa): 1451.3 ± 1.6 m/s
mass density (298.15 K, 101.33 kPa): 998.408 ± 0.33 kg/m3
speed of sound (298.15 K, 15200 kPa): 1513.5 ± 2.6 m/s
speed of sound (298.15 K, 30400 kPa): 1569.2 ± 2.6 m/s
speed of sound (298.15 K, 45600 kPa): 1621.1 ± 2.6 m/s
speed of sound (298.15 K, 60790 kPa): 1668.8 ± 2.5 m/s
speed of sound (298.15 K, 75990 kPa): 1713.8 ± 2.5 m/s
speed of sound (298.15 K, 91190 kPa): 1755.9 ± 2.5 m/s
speed of sound (298.15 K, 101320 kPa): 1783 ± 2.5 m/s
speed of sound (303.13 K, 15200 kPa): 1500 ± 2.6 m/s
speed of sound (303.13 K, 30400 kPa): 1556.4 ± 2.6 m/s
speed of sound (303.13 K, 45600 kPa): 1608.8 ± 2.6 m/s
speed of sound (303.13 K, 60790 kPa): 1657.1 ± 2.5 m/s
speed of sound (303.13 K, 75990 kPa): 1702.2 ± 2.5 m/s
speed of sound (303.13 K, 91190 kPa): 1745 ± 2.5 m/s
speed of sound (303.13 K, 101320 kPa): 1772.3 ± 2.5 m/s
mass density (303.15 K, 101.33 kPa): 994.659 ± 0.33 kg/m3
speed of sound (303.18 K, 101.33 kPa): 1436.5 ± 1.6 m/s
speed of sound (308.12 K, 60790 kPa): 1645.5 ± 2.5 m/s
speed of sound (308.12 K, 91190 kPa): 1734.2 ± 2.5 m/s
speed of sound (308.13 K, 15200 kPa): 1486.6 ± 2.6 m/s
speed of sound (308.13 K, 30400 kPa): 1543.5 ± 2.6 m/s
speed of sound (308.13 K, 45600 kPa): 1596.5 ± 2.6 m/s
speed of sound (308.13 K, 75990 kPa): 1691 ± 2.5 m/s
speed of sound (308.13 K, 101320 kPa): 1761.7 ± 2.5 m/s
mass density (308.15 K, 101.33 kPa): 990.872 ± 0.33 kg/m3
speed of sound (308.17 K, 101.33 kPa): 1421.8 ± 1.6 m/s
mass density (313.15 K, 101.33 kPa): 987.048 ± 0.34 kg/m3
speed of sound (313.3 K, 30400 kPa): 1530.3 ± 2.6 m/s
speed of sound (313.3 K, 45600 kPa): 1583.7 ± 2.6 m/s
speed of sound (313.3 K, 60790 kPa): 1633.4 ± 2.5 m/s
speed of sound (313.3 K, 75990 kPa): 1679.3 ± 2.5 m/s
speed of sound (313.3 K, 91190 kPa): 1723 ± 2.5 m/s
speed of sound (313.3 K, 101320 kPa): 1750.4 ± 2.5 m/s
speed of sound (313.31 K, 15200 kPa): 1472.8 ± 2.6 m/s
speed of sound (313.35 K, 101.33 kPa): 1406.7 ± 1.6 m/s
mass density (318.15 K, 101.33 kPa): 983.185 ± 0.34 kg/m3
speed of sound (318.15 K, 101.33 kPa): 1392.6 ± 1.6 m/s
mass density (323.15 K, 101.33 kPa): 979.285 ± 0.35 kg/m3
mass density (328.15 K, 101.33 kPa): 975.354 ± 0.35 kg/m3
mass density (333.15 K, 101.33 kPa): 971.386 ± 0.36 kg/m3
mass density (338.16 K, 101.33 kPa): 967.378 ± 0.36 kg/m3
mass density (343.15 K, 101.33 kPa): 963.333 ± 0.37 kg/m3
mass density (348.16 K, 101.33 kPa): 959.256 ± 0.37 kg/m3
mass density (353.15 K, 101.33 kPa): 955.143 ± 0.38 kg/m3
mass density (358.15 K, 101.33 kPa): 950.989 ± 0.39 kg/m3
mass density (363.15 K, 101.33 kPa): 946.804 ± 0.39 kg/m3
